Reference: patent US20220193030A1, “USE OF GINKGO TERPENE LACTONE IN PREPARING DRUG FOR PREVENTING AND/OR TREATING GUILLAIN-BARRE-STROHL SYNDROME” (CHENGDU BAIYU PHARMACEUTICAL CO., LTD., priority 2019, published 2022)
Marks after values point to notes of the source that are not given here.

Columns and labels:
EAN model rats [1] = assay: Test on algesia of ankle joint (pain reaction score) of EAN model rats; type: in vivo, Lewis rats; conditions: ankle dorsiflexion, score 0-5
Protocol: (§1) Intragastric administration, 2 times a day. Medicines were dissolved in accessories (glycerin:ethanol=6:4 V/V) to reach 5 mg/ml, and then were configured to reach corresponding concentrations by using sterilized drinking water.
(§2) For each rat in an EAN model group, an inoculum was subcutaneously injected into foot pads of hind limbs on two sides, 200 μL/rat (100 μL per side). […] For the negative control group, isopyknic normal saline was injected. For each group of animals, medicine administration was started from the first day after immunization, for 30 days in total.
Near a peak period of disease attack of EAN model animals, a test on algesia of ankle joints was performed on EAN model animals and adjuvant control animals, and rats in a rest state were forced to bend hind legs towards foot soles (dorsiflexion). For each side, 5 tests were made, at an interval of at least 5 s. For each time of dorsiflexion, if rats screamed or obviously withdrew paws, 1 score was counted. For each side, a total score is 0-5.
(§3) Data is represented by mean±standard deviation (x±SD). For scores of symptoms and scores of algesia, a non-parametric test Mann-Whitney U was used to compare differences between two groups. When P is less than 0.05, a statistic difference occurs.

TNF-α = assay: mRNA level of TNF-α in sciatic nerve tissue of EAN model rabbits (RT-PCR); type: in vivo, big-ear white rabbits; conditions: 14th day after modeling, ginkgolide groups 4.5 mg/kg intragastric 2 times a day, positive control 400 mg/kg·d i.p. 5 days
Protocol: (§4) 21 experimental groups, 8 rabbits in each group.
(§5) Positive control group: rabbit immune globulin, 400 mg/kg·d, intraperitoneal injection, for 5 consecutive days
(§6) The ginkgolide groups are set the same as Test example 1, i.e., include the ginkgolide A group to the ginkgolide K group (GA group to GK group), the bilobalide group (BB group) and the ginkgolide I group to the ginkgolide XI group, 18 groups in total. Ginkgolide used in each group has the same monomeric composition and ratio as those of Test example 1, but only differs in that the ginkgolide groups all use the same medicine administration dosage, i.e., 4.5 mg/kg.
as §1
(§7) EAN rabbit modeling: a certain amount of bovine sciatic nerve myelin basic protein and an isopyknic complete Freund's adjuvant were taken, shaken up by using a test tube oscillator, sufficiently mixed, and then subcutaneously injected into a back of each rabbit at multiple points.
(§8) Anesthesia was performed on the 14th day after modeling, to take sciatic nerve tissue of rabbits, and total RNA was extracted by a Trizol method. Detection was performed by a RT-PCR method. (GBS is an autoimmune disease of a nervous system. In-vivo autoreactive T cells of a patient have a cellular immunologic response to myelin P2 antigens, to form a delayed allergic reaction peripheral nerve demyelination pathological injury. This process is mainly mediated by CD4^+T cells, also named initial Th cells that may be differentiated into Th1 and Th2 after antigenic stimulation. Th1 cytokines (represented by TNF-α and IL-12) mainly enhance a cell mediated immune response, and are inflammatory cytokines; and Th2 cytokines (represented by IL-4 and IL-10) mainly participate in an antibody mediated immune response, and have an immune down-regulation and anti-inflammation effect. In GBS and ENA research, unbalance of Th1/Th2 plays an important role in disease injuries.)
(§9) Data is represented by mean±standard deviation (x±SD). Differences between two groups were compared. When P is less than 0.05, a statistic difference occurs.

IL-12 = assay: mRNA level of IL-12 in sciatic nerve tissue of EAN model rabbits (RT-PCR); type: in vivo, big-ear white rabbits; conditions: 14th day after modeling, ginkgolide groups 4.5 mg/kg intragastric 2 times a day, positive control 400 mg/kg·d i.p. 5 days
Protocol: as §4, §5, §6, §1, §7, §8, §9

IL-4 = assay: mRNA level of IL-4 in sciatic nerve tissue of EAN model rabbits (RT-PCR); type: in vivo, big-ear white rabbits; conditions: 14th day after modeling, ginkgolide groups 4.5 mg/kg intragastric 2 times a day, positive control 400 mg/kg·d i.p. 5 days
Protocol: as §4, §5, §6, §1, §7, §8, §9

EAN model rats [2] = assay: Pre-experimental dose study: clinical score of neurological symptoms of EAN model rats; type: in vivo, Lewis rats; conditions: score 0-10
Protocol: Persons skilled in the art learn that, pharmacological effect and dose are in a proportional relationship, i.e., a dose-effect relationship, only within a certain range.
as §2
(§10) The day of molding serves as the 0th day, and after that is 30 days of observation period. Observation date is represented by D plus number, D1, D2 and D3 respectively represent Observation date 1, Observation date 2 and Observation date 3, and subsequent dates are represented in the same way. Rats were weighed once every two days, and clinical symptoms of all experimental animals were scored. Within one week of a peak period (D14-D20) of disease attack of animals, weighing and clinical symptom scoring were performed every day. Score standards are as below: 0, normal; 1, a soft tail; 2, unable to lift a tail; 3, unable to automatically correct a body position; 4, ataxia; 5, mild paralysis of hind limbs; 6, moderate paralysis of hind limbs; 7, severe paralysis of hind limbs; 8, paresis of four limbs; 9, severe paresis of four limbs; and 10, death.
as §3

IL-10 = assay: mRNA level of IL-10 in sciatic nerve tissue of EAN model rabbits (RT-PCR); type: in vivo, big-ear white rabbits; conditions: 14th day after modeling, ginkgolide groups 4.5 mg/kg intragastric 2 times a day, positive control 400 mg/kg·d i.p. 5 days
Protocol: as §4, §5, §6, §1, §7, §8, §9

EAN model rats [3] = assay: Scores of neurological symptoms (clinical score) of EAN model rats, Test Example 1; type: in vivo, Lewis rats; set-up: key: 0 = normal, 5 = mild hind-limb paralysis, 10 = death; conditions: monomers 4.5 mg/kg, combinations 6.0-13.5 mg/kg; for Clinical score D12: D12, intragastric 2 times a day; for Clinical score D14: D14, intragastric 2 times a day; for Clinical score D22: D22, intragastric 2 times a day; for Clinical score D24: D24, intragastric 2 times a day; for Clinical score D26: D26, intragastric 2 times a day; for Clinical score D20: D20, intragastric 2 times a day
Protocol: 20 experimental groups, 10 […] in each group.
as §1, §2, §10, §3

Compound | Pain reaction score (D18) (EAN model rats [1]) | Cytokines TNF-α (mRNA level, sciatic nerve tissue) (TNF-α) | Cytokines IL-12 (mRNA level, sciatic nerve tissue) (IL-12) | Cytokines IL-4 (mRNA level, sciatic nerve tissue) (IL-4) | Clinical score (D17) (EAN model rats [2]; 2.0 mg/kg) | Clinical score (D17) (EAN model rats [2]; 4.5 mg/kg) | Clinical score (D17) (EAN model rats [2]; 15 mg/kg) | Cytokines IL-10 (mRNA level, sciatic nerve tissue) (IL-10) | Clinical score D12 (EAN model rats [3]) | Clinical score D14 (EAN model rats [3]) | Clinical score D22 (EAN model rats [3]) | Clinical score D24 (EAN model rats [3]) | Clinical score D26 (EAN model rats [3]) | Clinical score D16 (EAN model rats [3]; D16, intragastric 2 times a day) | Clinical score (D17) (EAN model rats [3]; D17, intragastric 2 times a day) | Clinical score D19 (EAN model rats [3]; D19, intragastric 2 times a day) | Clinical score D20 (EAN model rats [3])
CC(C)(C)[C@]1(O)CC2OC(=O)CC23C(=O)OC2OC(=O)[C@H](O)C231 (stereo partly drawn) [Bilobalide, bilobalide] | 2.9 ± 0.74 | 3.054 ± 0.182 | 4.087 ± 0.275 | 0.792 ± 0.065 | 5.70 ± 0.67 | 4.80 ± 0.63*^Δ | 4.90 ± 0.88*^Δ | 0.783 ± 0.128 |  |  |  |  |  |  |  |  | 
ginkgolide C | 1.9 ± 0.88 | 4.548 ± 0.154 | 6.009 ± 0.357 | 0.585 ± 0.053 | 6.90 ± 0.88 | 6.10 ± 0.57*^Δ | 6.00 ± 0.67*^Δ | 0.561 ± 0.090 | 4.4 ± 0.7 | 5.2 ± 0.8 | 4.4 ± 0.5 | 3.8 ± 0.8 | 3.1 ± 0.6 |  |  |  | 
ginkgolide J | 1.3 ± 0.67 | 4.810 ± 0.070 | 6.211 ± 0.489 | 0.551 ± 0.050 | 7.10 ± 0.57 | 6.40 ± 0.84*^Δ | 6.30 ± 0.82*^Δ | 0.501 ± 0.037 | 4.4 ± 0.7 | 5.5 ± 0.5 | 4.6 ± 0.5 | 4.0 ± 0.7 | 3.2 ± 0.6 | 6.5 ± 0.5 | 7.4 ± 0.5 | 6.2 ± 0.6 | 5.6 ± 0.5
CC1C(=O)OC2C(O)C34C5CC(C(C)(C)C)C36C(OC(=O)C6O)OC4(C(=O)O5)C12O (stereo not drawn) [Ginkgolide B, ginkgolide B] | 3.0 ± 0.67 | 2.978 ± 0.102 | 3.928 ± 0.409 | 0.769 ± 0.041 | 6.10 ± 1.10 | 5.10 ± 0.57*^Δ | 5.20 ± 0.63*^Δ | 0.813 ± 0.055 |  |  |  |  |  |  |  |  | 
C[C@@H]1C(=O)O[C@@H]2[C@H]1[C@@]13OC4OC(=O)[C@H](O)C45[C@H](C(C)(C)C)[C@@H](O)C(OC1=O)[C@]53[C@H]2O (stereo partly drawn) [Ginkgolide M, ginkgolide M] | 1.4 ± 0.52 | 4.797 ± 0.147 | 6.260 ± 0.411 | 0.558 ± 0.050 | 7.10 ± 0.32 | 6.40 ± 0.97*^Δ | 6.50 ± 0.71*^Δ | 0.550 ± 0.061 | 4.5 ± 0.7 | 5.6 ± 0.5 | 4.6 ± 0.5 | 4.0 ± 0.7 | 3.2 ± 0.6 |  |  |  | 5.5 ± 0.5
C[C@@H]1C(=O)O[C@H]2C[C@@]34[C@H]5C[C@@H](C(C)(C)C)[C@]36[C@@H](OC(=O)[C@@H]6O)O[C@@]4(C(=O)O5)[C@]21O [Ginkgolide A, ginkgolide A] | 2.0 ± 0.67 | 4.693 ± 0.115 | 5.977 ± 0.141 | 0.569 ± 0.048 | 7.00 ± 0.82 | 6.10 ± 0.74*^Δ | 6.00 ± 1.25*^Δ | 0.584 ± 0.039 | 4.4 ± 0.5 | 5.3 ± 0.5 | 4.4 ± 0.5 | 3.7 ± 0.8 | 3.1 ± 0.6 |  |  |  | 
CC1=C2[C@@H](OC1=O)[C@H](O)[C@]13[C@H]4C[C@@H](C(C)(C)C)[C@]15[C@@H](OC(=O)[C@@H]5O)O[C@@]23C(=O)O4 [Ginkgolide K, ginkgolide K] | 1.2 ± 0.63 | 4.739 ± 0.094 | 6.412 ± 0.169 | 0.557 ± 0.046 | 7.20 ± 0.42 | 6.50 ± 0.85*^Δ | 6.70 ± 0.82*^Δ | 0.524 ± 0.026 | 4.5 ± 0.7 | 5.6 ± 0.5 | 4.5 ± 0.5 | 3.9 ± 0.7 | 3.1 ± 0.6 |  |  |  | 5.5 ± 0.5
